Entries after “also recorded” stand apart in the source; their conditions may differ.
Tests used:
growth hormone = assay: Plasma growth hormone before and after subcutaneous ghrelin in a cancer cachexia patient (Example 4); format: in vivo, human; settings: before and after the two subcutaneous injections, 0.8 to 1.5 micrograms/kg twice daily, one patient
Experimental: (§1) The patient was treated with subcutaneous injections of 0.8 to 1.5 micrograms/kg ghrelin twice daily for 4 weeks. The injections were taken before meals.
Pharmacokinetic and pharmacodynamic assessment was performed at day 1 and 2 by blood sampling before and after each injection and measurement of plasma levels of growth hormone and active and total ghrelin.

[1] = infusion for 90 minutes, cancer cachexia patients; cited from earlier work
[2] = Pharmacokinetics of ghrelin formulations after subcutaneous administration in rats (Examples 9 and 10); format: in vivo, Sprague Dawley rats; parameters: Tmax: dose or concentration left out as unconfirmed; settings: rat
Experimental: Two different types of liposomes were made containing dipalmitoyl DL-α-phosphatidylcholine (DPPC ) and a mixture of phosphatidylcholin and cholesterol (PC/Chol), respectively. The liposomes were prepared by dissolving and mixing the lipids in chloroform. Chloroform was removed overnight by rotation evaporation, and the resulting lipid film was first striped with ethanol (99,9%) and then left overnight in the rotation evaporator. The multilamellar liposomes were formed by hydration in HEPES-buffer (10 mM HEPES, 50 mM KCl, 1mM NaN3, pH=5,5) for at least 1 h. The hydration temperature was 51° C. (10° C. above the Tm of the phospholipids). Subsequently, the liposomes were sonicated for 30 sec every 10 min during one hour using a tip sonicator. One hundred nanometer unilamellar liposomes were made from the multilamellar liposomes by extrusion through 100 nm polycarbonate filters. Size measurements were performed by dynamic light scattering (DLS) using a Zetasizer 4 (Malvern, UK). Tm were determined by Differential Scanning Caleometry (DSC; MicroCal™ Incorporated). Ghrelin were added approximately 2 h before the administration of the formulation to the animals in doses of 60 μg per 500 μL
Intralipid 30% were purchased from the local Pharmacy on the Danish University Hospital Copenhagen (Rigshospitalet). 1000 mL contain: purified soybean oil 300 g, purified egg phospholipids 12 g, glycerol anhydrous 16.7 g, water for injection q.s. ad 1 000 mL. pH is adjusted with sodium hyroxide to pH approximately 7.5.
Animals: Thirty (30) male Sprague Dawley rats (aged 6-7 weeks; approximately 300 g; Charles River, Germany) were used. Upon arrival at the animal facility, they were housed 3 per cage for one week, and subsequently transferred to individual cages with access to food and water ad libitum.
After one week of singly housing, the rats were ready for experiments and were randomized into 5 weight-matched groups (6 pr. group):
All compounds were administered by subcutaneous administration (0.5 ml/300g rat)
On the experimental day (0800-0930), 15 minute prior to receiving the test dose, a 200 μl blood sample was drawn from the tail vein. At time point 0 a second blood sample was drawn and immediately after rats received an sc injection with test compound according to the groups listed above. Seven more samples were drawn (volume 200 μl) at time points: 15, 30, 45, 60, 90, 120 and 240 minutes post injection according to study outline. The total blood volume drawn was 1800 μl (approx. 10% of total blood volume).
Blood samples were kept on ice until plasma separation could be performed. After centrifugation (4000 rpm for 10 minutes) plasma was transferred to vials/tubes containing 5 μL 1N HCl og 5 μL 2mg/mL solution of Phenylmethylsulfonyl fluoride in isopropanol.
The active (acylated) ghrelin in the plasma samples was measured by use of a RIA assay (Linco Research, Inc) according to the manufactures protocol.

[3] = continuous intravenous infusion for 270 minutes, 5 pmol/kg/min; cited from earlier work
[4] = Plasma ghrelin after subcutaneous bolus injection of ghrelin in mice (Example 6); format: in vivo
Experimental: 6+6 mice received 12 or 24 nmol of ghrelin by a subcutaneous bolus injection in the neck (corresponding to 400 and 800 nmol kg^−1, respectively). […] Immunoactive ghrelin was measured in 20 μl plasma with a radioimmunoassay (RIA) that uses an antiserum raised against acylated human ghrelin (Phoenix Pharmaceuticals); ^125I-labelled ghrelin-28 was used as a tracer a rat ghrelin-28 as standard. […] Plasma concentrations were expressed as pmol equivalents of rat ghrelin-28 per liter. Active (octanoylated) ghrelin was determined in 50 μl plasma using an enzyme linked immunosorbent assay (ELISA) kit (LINCO Research, St. Charles, Mo., USA).

[5] = Clinical follow-up of a cancer cachexia patient treated with ghrelin (Example 4); format: in vivo, human; settings: weekly IV injections, before the subcutaneous treatment
[6] = as above; format: in vivo, human
Experimental: as §1
The patient was followed weekly by standard laboratory tests, Cachexia/anorexia and quality of life questionnaires, body-weight, body-composition analysis (DEXA-scan) and chest-x-ray or thorax-CT among others.

[7] = Daily subcutaneous ghrelin for 8 weeks in gastrectomised and sham-operated mice (Example 7); format: in vivo
Experimental: Mice were subjected to gastrectomy or to sham operation. Gastrectomy was carried out by resecting the glandular stomach (antrum and fundus), followed by anastomozing the duodenum and the rumen end-to-end. The mortality associated with gastrectomy was 10%. Some of the gastrectomised and sham-operated mice received a subcutaneous dose of ghrelin (12 nmol) daily for 8 weeks. Controls received saline. […] After 8 weeks the mice were killed by decapitation (16-18 h after the last injection). Blood was collected and plasma stored at −20° C. for measurement of ghrelin (see below). Lean tissue was analysed by dual energy x-ray absorptiometry (DXA) (PIXImus, Lunar Corporation, Madison, […]., USA). White adipose tissue (WAT) (mesenteric, retroperitoneal-renal, gonadal and inguinal) and intrascapular brown adipose tissue (BAT) was dissected out and weighed
Measurement of circulating ghrelin: If not otherwise stated, determination of circulating ghrelin was carried out on plasma from animals at sacrifice (end-point analysis). Immunoactive ghrelin was measured in 20 pi plasma with a radioimmunoassay (RIA) that uses an antiserum raised against acylated human ghrelin (Phoenix Pharmaceuticals); ^125I-labelled ghrelin-28 was used as a tracer a rat ghrelin-28 as standard. […] Plasma concentrations were expressed as pmol equivalents of rat ghrelin-28 per liter. Active (octanoylated) ghrelin was determined in 50 μl plasma using an enzyme linked immunosorbent assay (ELISA) kit (LINCO Research, St. Charles, Mo., USA).
Statistical analysis: Values are expressed as means±S.E.M. Differences were analyzed by the student t-test or by one-way analysis of variance (ANOVA), using Bonferroni's multiple comparison test. A p value of less than 0.05 was considered statistically significant.

[8] = ghrelin (200 mg/kg) in a buffer
[9] = subcutaneous 0.8 to 1.5 micrograms/kg twice daily for 4 weeks, one patient
[10] = gastrectomised mice, 12 nmol sc daily, 8 weeks

CCCCCCCC(=O)OC[C@H](NC(=O)[C@H](CO)NC(=O)CN)C(=O)N[C@@H](Cc1ccccc1)C(=O)N[C@@H](CC(C)C)C(=O)N[C@@H](CO)C(=O)N1CCC[C@H]1C(=O)N[C@@H](CCC(=O)O)C(=O)N[C@@H](Cc1cnc[nH]1)C(=O)N[C@@H](CCC(N)=O)C(=O)N[C@@H](CCCNC(=N)N)C(=O)N[C@H](C(=O)N[C@@H](CCC(N)=O)C(=O)N[C@@H](CCC(N)=O)C(=O)N[C@@H](CCCNC(=N)N)C(=O)N[C@@H](CCCCN)C(=O)N[C@@H](CCC(=O)O)C(=O)N[C@@H](CO)C(=O)N[C@@H](CCCCN)C(=O)N[C@@H](CCCCN)C(=O)N1CCC[C@H]1C(=O)N1CCC[C@H]1C(=O)N[C@@H](C)C(=O)N[C@@H](CCCCN)C(=O)N[C@@H](CC(C)C)C(=O)N[C@@H](CCC(N)=O)C(=O)N1CCC[C@H]1C(=O)N[C@@H](CCCNC(=N)N)C(=O)O)C(C)C [ghrelin]
increase in plasma growth hormone levels (growth hormone): more than 5 fold | increase of food intake [1]: 30% | decrease of plasma concentration in the 15 min after the maximum (time point 30 min) [2, 8]: approximately 30% | further decrease of plasma concentration in the following 15 min (time point 45) [2, 8]: ~60% | increase in active ghrelin in plasma [2, 8]: approximately 10 fold | plasma level of active ghrelin after 120 min [2, 8]: slightly increased | plasma level of active ghrelin after 240 min [2, 8]: back to basal level | Tmax ([2]; male, Sprague Dawley, plasma, sc, ghrelin in a buffer, read-out: time of maximal plasma concentration of ghrelin (converted)): 15 min | food intake [3]: increase in food intake | plasma ghrelin 6 h after injection ([4]; 12 nmol sc, 6 h): still elevated | plasma concentration of active (octanoylated) ghrelin 6 h after injection ([4]; 12 nmol sc, 6 h, n=4): remained high | plasma concentration of active (octanoylated) ghrelin (ELISA) ([4]; 12 nmol sc, n=4): greatly elevated | plasma ghrelin concentration (RIA, octanoylated and des-octanoylated) ([4]; 12 and 24 nmol sc, n=6 in each group): raised | response to ghrelin treatment [5]: responded well | tumor progression (CT-scans) ([6]; mesothelioma, during the subcutaneous ghrelin treatment, 4 weeks): did not progress | body weight and body composition ([6]; subcutaneous 0.8 to 1.5 micrograms/kg twice daily before meals for 4 weeks, one patient): stable body weight and body composition | ability to eat meals [6, 9]: able to eat full plates of meals and finish these; also recorded: increased objective hunger and ability to eat meals | hunger [6, 9]: did not feel more intensified hunger; also recorded: increased objective hunger | adverse effects ([6]; subcutaneous treatment, 4 weeks): no significant adverse effects | lab values ([6]; subcutaneous treatment, weekly standard laboratory tests): did not show a substantial difference | plasma ghrelin concentration 16-18 h after injection ([7]; 12 nmol sc daily for 8 weeks, 16-18 h after the last injection): elevated | amount of fat (fat depots) [7, 10]: normalized the fat depots | amount of lean tissue (lean body mass, DXA) [7, 10]: reversed the effect; also recorded: normalized | body weight raised [7, 10]: 8% | lean body mass, ghrelin versus saline ([7]; sham-operated mice, 12 nmol sc daily, 8 weeks): no difference

Source: patent US20070037751A1, “Uses of secretagogues like ghrelin in cancer cachexia and for stimulating appetite” (priority 2003, published 2007)
